Results: patent US9346798B2, “Dihydrobenzoxazine and tetrahydroquinoxaline sodium channel inhibitors” (AMGEN INC., priority 2012, dated 2016)

What was measured:
Assay type in all cases: cell-based
[1] = biological target: T1, Nav 1.7 (Homo sapiens (Human), UniProt Q15858); assay: Nav 1.7 in vitro assay, IonWorks Quattro (IWQ) population patch-clamp; conditions: HEK 293 cells stably transfected with Nav 1.7; 26th pulse to -20 mV
[2] = biological target: T1, Nav 1.7; assay: Nav 1.7 in vitro PX assay, PatchXpress whole cell voltage clamp; conditions: HEK 293 cells stably transfected with human Nav1.7; for IC50: partially inactivated state (20 to 50% inactivation)
Procedure, shortened: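 HEK293 cells stably expressing human Nav1.7, whole-cell voltage clamp at a holding potential giving 20–50% inactivation; currents elicited by 20 msec pulses to −10 mV at 0.1 Hz.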

[3] = biological target: Nav 1.5 (Homo sapiens (Human), UniProt Q14524); assay: Nav 1.5 in vitro assay, IonWorks Quattro (IWQ) population patch-clamp; conditions: HEK 293 cells stably transfected with Nav 1.5; 26th pulse to -20 mV
Chain of Nav 1.5 (Q14524 whole entry): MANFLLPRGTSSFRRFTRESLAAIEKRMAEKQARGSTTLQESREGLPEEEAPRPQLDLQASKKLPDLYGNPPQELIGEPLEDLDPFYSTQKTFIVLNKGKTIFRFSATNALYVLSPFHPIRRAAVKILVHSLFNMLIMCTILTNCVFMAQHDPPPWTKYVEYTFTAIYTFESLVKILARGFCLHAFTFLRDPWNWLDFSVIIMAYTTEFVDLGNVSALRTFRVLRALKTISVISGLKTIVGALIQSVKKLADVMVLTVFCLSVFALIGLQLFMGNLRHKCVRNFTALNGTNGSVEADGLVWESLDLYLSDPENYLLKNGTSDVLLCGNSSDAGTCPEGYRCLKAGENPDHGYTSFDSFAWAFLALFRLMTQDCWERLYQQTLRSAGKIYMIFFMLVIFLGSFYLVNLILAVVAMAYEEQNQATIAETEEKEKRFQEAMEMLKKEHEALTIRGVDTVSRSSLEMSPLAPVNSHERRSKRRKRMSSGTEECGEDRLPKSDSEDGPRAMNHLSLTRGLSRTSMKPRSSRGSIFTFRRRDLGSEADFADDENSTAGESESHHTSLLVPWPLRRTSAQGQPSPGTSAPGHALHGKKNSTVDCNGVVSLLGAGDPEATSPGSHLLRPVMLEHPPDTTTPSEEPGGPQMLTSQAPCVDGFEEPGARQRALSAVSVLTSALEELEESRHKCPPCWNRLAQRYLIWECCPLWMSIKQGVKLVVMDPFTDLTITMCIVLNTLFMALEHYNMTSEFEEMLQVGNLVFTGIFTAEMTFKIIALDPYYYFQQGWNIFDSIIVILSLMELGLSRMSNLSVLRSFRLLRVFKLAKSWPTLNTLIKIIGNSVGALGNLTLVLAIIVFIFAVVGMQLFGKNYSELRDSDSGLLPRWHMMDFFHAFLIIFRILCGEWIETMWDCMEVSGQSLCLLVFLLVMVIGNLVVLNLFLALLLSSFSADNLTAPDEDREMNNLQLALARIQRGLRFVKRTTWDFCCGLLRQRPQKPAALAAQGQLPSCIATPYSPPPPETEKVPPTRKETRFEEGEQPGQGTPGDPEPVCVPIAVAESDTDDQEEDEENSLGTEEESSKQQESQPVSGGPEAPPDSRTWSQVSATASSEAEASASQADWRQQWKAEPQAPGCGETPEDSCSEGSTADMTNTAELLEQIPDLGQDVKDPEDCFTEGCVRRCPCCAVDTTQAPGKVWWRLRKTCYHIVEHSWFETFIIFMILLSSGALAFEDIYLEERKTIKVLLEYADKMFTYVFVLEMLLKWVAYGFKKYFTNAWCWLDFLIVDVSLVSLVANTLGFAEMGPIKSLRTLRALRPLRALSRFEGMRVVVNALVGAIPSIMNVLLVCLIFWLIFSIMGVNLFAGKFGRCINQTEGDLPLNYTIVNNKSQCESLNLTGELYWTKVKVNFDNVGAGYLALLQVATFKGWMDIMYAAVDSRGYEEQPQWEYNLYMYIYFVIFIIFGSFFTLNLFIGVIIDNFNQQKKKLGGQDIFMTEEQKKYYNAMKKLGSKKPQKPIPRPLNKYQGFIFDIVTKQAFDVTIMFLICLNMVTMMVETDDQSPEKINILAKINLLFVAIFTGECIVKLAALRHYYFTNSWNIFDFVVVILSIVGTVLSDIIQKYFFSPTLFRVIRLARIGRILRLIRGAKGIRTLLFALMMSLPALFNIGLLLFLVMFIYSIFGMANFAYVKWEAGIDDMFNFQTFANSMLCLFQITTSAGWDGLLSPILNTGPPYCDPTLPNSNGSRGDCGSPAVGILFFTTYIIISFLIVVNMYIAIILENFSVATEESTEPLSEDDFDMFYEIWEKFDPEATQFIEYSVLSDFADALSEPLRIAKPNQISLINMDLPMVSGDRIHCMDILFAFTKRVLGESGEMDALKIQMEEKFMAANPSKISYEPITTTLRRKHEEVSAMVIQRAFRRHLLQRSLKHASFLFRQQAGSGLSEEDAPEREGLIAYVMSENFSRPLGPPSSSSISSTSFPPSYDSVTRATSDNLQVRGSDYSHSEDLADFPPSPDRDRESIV

T1 sequence (Q15858 whole entry): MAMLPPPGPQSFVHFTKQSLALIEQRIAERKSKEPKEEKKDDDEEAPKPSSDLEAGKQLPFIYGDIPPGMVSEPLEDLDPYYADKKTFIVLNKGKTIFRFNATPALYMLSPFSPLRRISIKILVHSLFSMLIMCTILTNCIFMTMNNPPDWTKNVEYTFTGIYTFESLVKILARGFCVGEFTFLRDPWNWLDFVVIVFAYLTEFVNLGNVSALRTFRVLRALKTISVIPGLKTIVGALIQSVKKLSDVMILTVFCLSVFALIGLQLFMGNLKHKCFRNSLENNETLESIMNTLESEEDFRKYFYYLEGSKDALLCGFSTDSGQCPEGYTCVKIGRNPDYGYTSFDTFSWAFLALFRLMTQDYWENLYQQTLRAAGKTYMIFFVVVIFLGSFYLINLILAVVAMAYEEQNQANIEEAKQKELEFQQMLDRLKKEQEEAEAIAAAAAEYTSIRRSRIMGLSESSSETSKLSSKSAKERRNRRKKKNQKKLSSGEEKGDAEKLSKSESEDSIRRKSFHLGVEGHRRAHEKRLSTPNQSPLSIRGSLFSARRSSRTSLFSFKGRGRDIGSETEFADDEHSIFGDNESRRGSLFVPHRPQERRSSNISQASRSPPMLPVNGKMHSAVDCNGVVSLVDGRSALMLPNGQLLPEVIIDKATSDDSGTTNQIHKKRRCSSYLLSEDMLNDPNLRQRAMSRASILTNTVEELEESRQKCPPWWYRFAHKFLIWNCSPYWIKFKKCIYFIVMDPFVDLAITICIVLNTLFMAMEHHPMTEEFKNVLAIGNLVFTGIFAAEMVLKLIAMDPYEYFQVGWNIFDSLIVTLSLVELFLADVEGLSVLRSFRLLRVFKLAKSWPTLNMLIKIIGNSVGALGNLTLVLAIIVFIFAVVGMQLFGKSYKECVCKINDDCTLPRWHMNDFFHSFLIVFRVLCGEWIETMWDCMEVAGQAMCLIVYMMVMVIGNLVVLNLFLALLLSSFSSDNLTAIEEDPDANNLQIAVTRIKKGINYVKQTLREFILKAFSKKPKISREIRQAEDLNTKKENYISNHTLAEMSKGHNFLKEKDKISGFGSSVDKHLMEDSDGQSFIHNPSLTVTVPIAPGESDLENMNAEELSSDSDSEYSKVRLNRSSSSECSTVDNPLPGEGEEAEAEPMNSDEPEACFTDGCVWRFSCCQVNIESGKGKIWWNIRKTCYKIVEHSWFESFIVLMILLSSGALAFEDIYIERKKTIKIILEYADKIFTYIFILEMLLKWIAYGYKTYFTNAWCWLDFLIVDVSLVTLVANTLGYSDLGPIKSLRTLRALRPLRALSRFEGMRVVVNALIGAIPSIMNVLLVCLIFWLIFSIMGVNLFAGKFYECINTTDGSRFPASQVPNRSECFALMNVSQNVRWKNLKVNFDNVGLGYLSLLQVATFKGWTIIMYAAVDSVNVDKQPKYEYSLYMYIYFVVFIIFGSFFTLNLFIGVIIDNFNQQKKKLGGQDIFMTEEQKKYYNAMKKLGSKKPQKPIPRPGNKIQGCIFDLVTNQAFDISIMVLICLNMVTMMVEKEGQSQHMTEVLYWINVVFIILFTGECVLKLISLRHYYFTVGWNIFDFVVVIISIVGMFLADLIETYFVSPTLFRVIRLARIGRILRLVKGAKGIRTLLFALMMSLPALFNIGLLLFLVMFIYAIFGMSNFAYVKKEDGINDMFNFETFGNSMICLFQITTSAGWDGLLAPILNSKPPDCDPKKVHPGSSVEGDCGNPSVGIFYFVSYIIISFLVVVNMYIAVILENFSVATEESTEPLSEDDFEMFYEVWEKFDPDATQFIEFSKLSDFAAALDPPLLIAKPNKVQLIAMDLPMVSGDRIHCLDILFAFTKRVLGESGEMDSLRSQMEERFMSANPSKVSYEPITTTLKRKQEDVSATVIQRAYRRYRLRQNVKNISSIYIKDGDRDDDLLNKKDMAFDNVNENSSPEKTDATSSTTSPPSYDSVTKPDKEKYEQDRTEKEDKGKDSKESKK

SMILES	IC50 [1] [nM]	inhibition at 4.9 µM ([2]; HEK293, values marked *, 4.9 μM, read-out: Nav 1.7 PX percent inhibition at 4.9 μM) [%]	IC50 [2] [nM]	IC50 [3] [µM]
Cc1cncc(C)c1N1CCOc2cc(S(=O)(=O)Nc3nccs3)ccc21 [Example 133, 4-(3,5-Dimethylpyridin-4-yl)-N-(thiazol-2-yl)-3,4-dihydro-2H-benzo[b][1,4]oxazine-7-sulfonamide]	1590	20.2		> 10
N#Cc1ccc(N2CCOc3cc(S(=O)(=O)Nc4nccs4)ccc32)cc1OC(F)(F)F [Example 167, 4-(4-cyano-3-(trifluoromethoxy)phenyl)-N-(thiazol-2-yl)-3,4-dihydro-2H-benzo[b][1,4]oxazine-7-sulfonamide]	652		6150	> 10
COc1cc(Cl)ccc1N1CC(C)Oc2cc(S(=O)(=O)Nc3nccs3)ccc21 (racemic) [Example 103, 4-(4-Chloro-2-Methoxyphenyl)-2-Methyl-N-(Thiazol-2-Yl)-3,4-Dihydro-2H-Benzo[B][1,4]Oxazine-7-Sulfonamide]	40		422	9.59
Cc1cc(OC(F)F)cnc1N1CCOc2cc(S(=O)(=O)Nc3nccs3)ccc21 [Example 146, 4-(5-(Difluoromethoxy)-3-methylpyridin-2-yl)-N-(thiazol-2-yl)-3,4-dihydro-2H-benzo[b][1,4]oxazine-7-sulfonamide]	416		4730	5.22
COc1ncc(C(F)(F)F)cc1N1CCOc2cc(S(=O)(=O)Nc3nccs3)ccc21 [Example 145, 4-(2-Methoxy-5-(trifluoromethyl)pyridin-3-yl)-N-(thiazol-2-yl)-3,4-dihydro-2H-benzo[b][1,4]oxazine-7-sulfonamide]	235		11800	7.38

Continued, in another order:

IC50 [1] [nM]	inhibition at 4.9 µM ([2]; HEK293, values marked *, 4.9 μM, read-out: Nav 1.7 PX percent inhibition at 4.9 μM) [%]	IC50 [2] [nM]	SMILES	IC50 [3] [µM]
6.2		135	O=S(=O)(Nc1ccncn1)c1ccc2c(c1)OCCN2c1ccc(C(F)(F)F)cc1C1=CCNCC1 [Example 45, N-(Pyrimidin-4-Yl)-4-(2-(1,2,3,6-Tetrahydropyridin-4-Yl)-4-(Trifluoromethyl)Phenyl)-3,4-Dihydro-2H-Benzo[B][1,4]Oxazine-7-Sulfonamide 2,2,2-Trifluoroacetate]	1.2
11.5		585	O=S(=O)(Nc1nccs1)c1ccc2c(c1)OCCN2c1ccc(C(F)(F)F)cc1-c1cncnc1 [Example 54, 4-(2-(Pyrimidin-5-Yl)-4-(Trifluoromethyl)Phenyl)-N-(Thiazol-2-Yl)-3,4-Dihydro-2H-Benzo[B][1,4]Oxazine-7-Sulfonamide 2,2,2-Trifluoroacetate]	0.731
69.5		912	N#Cc1ccc(OC(F)(F)F)cc1N1CCOc2cc(S(=O)(=O)Nc3nccs3)ccc21 [Example 128, 4-(2-Cyano-5-(trifluoromethoxy)phenyl)-N-(thiazol-2-yl)-3,4-dihydro-2H-benzo[b][1,4]oxazine-7-sulfonamide]	3.69
